The text below walks through data of PubChem BioAssay AID1645871.

For this data set the following is noted: pampa; pH 5.0; 30.0 min; 50.0 µM.

Consider `CCCCOc1ccc(CNC(=O)c2cc3n(n2)CCCN(Cc2ccc(C)cc2)C3=O)cc1`, for which the apparent permeability (Papp) is 867 ×10⁻⁶ cm/s.

`CCCNC(=O)c1ccc2c(c1)N=C(C)c1c(C)ccc(C)c1S2` showed an apparent permeability coefficient (Papp) above 1000 ×10⁻⁶ cm/s. The same measure for `Cc1ccccc1S(=O)(=O)N1CCCC(CCC(=O)NCCN(C)C2CCCCC2)C1` (stereo unspecified): 32.8 ×10⁻⁶ cm/s; for `CCc1ccccc1-n1c(SCC(=O)Nc2ccc(C)cc2)nc2n[nH]c(C)c2c1=N`: above 1000 ×10⁻⁶ cm/s; for `O=S(=O)(Nc1ccc(-c2cccnc2)c2cccnc12)c1cccc(C(F)(F)F)c1`: above 1000 ×10⁻⁶ cm/s.

In turn, `c1cn2cc(-c3ccc4cn[nH]c4c3)nc(Nc3ccc(N4CCOCC4)cc3)c2n1` gave a Papp above 1000 ×10⁻⁶ cm/s. The same measure for `N#Cc1ccc(C(=O)Nc2ccc(Cl)c(-c3nc4cc(Cl)ccc4o3)c2)c(F)c1`: 679 ×10⁻⁶ cm/s; for `O=c1ncn2nc(Sc3ccc(F)cc3F)ccc2c1-c1c(Cl)cccc1Cl`: 793 ×10⁻⁶ cm/s. Consider `COc1cc(C(=O)NC2CCCc3c2[nH]c2ccccc32)cc(OC)c1OC` (stereo unspecified), for which the Papp turned out to be 926 ×10⁻⁶ cm/s.

In the case of `COC[C@@H]1CN(C(=O)c2n[nH]c3ccccc23)C[C@H]1c1nc(C)no1`, the apparent permeability (Papp) amounted to 37.8 ×10⁻⁶ cm/s. Compared with the last compound, the Papp is about 24-fold lower. Regarding `COc1ccc(-n2nc(C3CCCN(C(=O)c4ccc(C)cc4)C3)[nH]c2=O)cc1` (stereo unspecified), the Papp was 603 ×10⁻⁶ cm/s.

The compound `Cc1nc([C@](C)(O)CO)sc1-c1cnc(N)c(O[C@H](C)c2cc(F)ccc2-n2nccn2)c1` came in with a Papp of 322 ×10⁻⁶ cm/s. `Cc1ccc2oc3c(c(=O)c2c1)C(c1cccc(O)c1)N(CCCN1CCOCC1)C3=O` (stereo unspecified) had a Papp of 2.62 ×10⁻⁶ cm/s. The value for `COc1cc2c(Nc3ccc(Br)cc3F)ncnc2cc1OCC1CCN(C)CC1` was 97.3 ×10⁻⁶ cm/s; that for `COc1ccc(-n2nc(C3CCCN(C(=O)c4ccccc4F)C3)[nH]c2=O)cc1` (stereo unspecified) was 341 ×10⁻⁶ cm/s.

For `O=C(NCc1ccc(S(=O)(=O)c2cccc(C(F)(F)F)c2)cc1)c1cnc2[nH]ncc2c1`, the apparent permeability (Papp) worked out at 362 ×10⁻⁶ cm/s. The Papp values of the last two compounds are within 1.5-fold of each other. `COc1cc([C@@H](CC(=O)O)c2ccc(C)c(CN3C[C@@H](C)Oc4ccccc4S3(=O)=O)c2)cc2nnn(C)c12` had a Papp of 898 ×10⁻⁶ cm/s. The same measure for `COc1cc(C2c3c(oc4cc(C)c(C)cc4c3=O)C(=O)N2CCCN2CCOCC2)ccc1O` (stereo unspecified): 25.3 ×10⁻⁶ cm/s; for `Cc1ccnc(NC(=O)C2CC(=O)N(c3n[nH]c4cc(Br)ccc34)C2)c1` (stereo unspecified): 62.8 ×10⁻⁶ cm/s. For the compound `COc1c(O)cc2c(c1OC)-c1ccc(SC)c(=O)cc1C(NC(C)=O)CC2` (stereo unspecified), the apparent permeability coefficient (Papp) worked out at 20.7 ×10⁻⁶ cm/s. Compared with the last compound, the Papp is about 3-fold lower. The value for `COc1ccccc1NC(=O)C1=C(C)Nc2c(C(=O)Nc3cccc(C)c3)cnn2C1c1ccccc1Cl` (stereo unspecified) was 156 ×10⁻⁶ cm/s; that for `Cc1cccc(-c2noc([C@@H]3Cc4nc[nH]c4CN3C(=O)CC(C)(C)CC(=O)O)n2)c1` was 46.7 ×10⁻⁶ cm/s; that for `S=c1[nH]c2ccccc2n1CCc1ccccc1` was 903 ×10⁻⁶ cm/s. `NC1CCN(C(=O)C2CCCN(c3nc(-c4ccccc4)nc4c3CCC4)C2)CC1` (stereo unspecified) had an apparent permeability coefficient (Papp) of 7.56 ×10⁻⁶ cm/s. On to `CCOc1ccc(N2CC(c3nc(-c4cc(OC)c(OC)c(OC)c4)no3)CC2=O)cc1` (stereo unspecified), for which the Papp was above 1000 ×10⁻⁶ cm/s. In the case of `CC(=O)N[C@H]1CN(C2CCN(c3ccc(F)cc3C)CC2)C[C@@H]1C1CC1`, the apparent permeability coefficient (Papp) amounted to 144 ×10⁻⁶ cm/s. The same measure for `CN(C)C(=O)NC1CCC(CCN2CCN(c3cccc(Cl)c3Cl)CC2)CC1` (stereo unspecified): 350 ×10⁻⁶ cm/s; for `c1coc(-c2nc3ccncc3[nH]2)c1`: 5.56 ×10⁻⁶ cm/s. In the case of `CCOc1ccc(CNC(=O)CCCn2nc(C)c3c(C)n(-c4ccc(C)cc4)nc3c2=O)cc1`, the apparent permeability (Papp) was found to be 582 ×10⁻⁶ cm/s. Compared with the last compound, the Papp is about 100-fold higher. `COc1cc(NC(=O)Cn2c(=O)oc3cc(S(=O)(=O)N4CCCCCC4)ccc32)cc(OC)c1` gave a Papp of 372 ×10⁻⁶ cm/s. This Papp lies about 1.6-fold lower than the previous one. In turn, `COc1cc2c(cc1Oc1cccc(N(C)C)c1)NC(=O)C21CCN(c2cnccn2)CC1` showed a Papp above 1000 ×10⁻⁶ cm/s.

Consider `CCOc1ccccc1C(=O)NC1CCN(c2cc(C)cc(C)c2)C1=O` (stereo unspecified), for which the apparent permeability coefficient (Papp) was above 1000 ×10⁻⁶ cm/s. The same measure for `Cc1cccc(N2CCN(c3nc4ccccc4c4nnc(C)n34)CC2)c1C`: above 1000 ×10⁻⁶ cm/s.

As for `Cc1ccccc1NC(=O)Nc1cccs1`, the Papp worked out at 209 ×10⁻⁶ cm/s. `Cc1nn2c(c1-c1ccccc1-c1ccccc1)N(Cc1ccc(C(=O)O)s1)CCC2` yielded an apparent permeability coefficient (Papp) of 523 ×10⁻⁶ cm/s.

`O=C(Nc1ccc(N2CCC(N3CCCCC3)CC2)c(C(=O)O)c1)c1ccc(Br)cc1` displayed an apparent permeability coefficient (Papp) of 7.15 ×10⁻⁶ cm/s.

What is called Papp is the rate of passage across a membrane or cell layer, normalised by area and donor concentration. The low end stands for slow passage, the high end for fast passage.
